Source: patent publication US11576914B2, “Drug for treating or preventing disorder caused by TGF-β signaling, and application thereof” (THE DOSHISHA, priority 2017, dated 2023)
“Also recorded” adds a separate entry of the source.

Assays:
corneal endothelium = experiment: Histological analysis of the corneal endothelium after instillation; assay type: in vivo; conditions: 10 μM into the anterior chamber, after 24 hours, positive control
Source text: Rabbits were euthanized, and then their eyes were removed and histologically analyzed. Expression of markers related to corneal endothelial functions was confirmed by immunostaining. The sclerocornea fragments were fixed with 0.5% paraformaldehyde and then blocked with 1% bovine serum albumin. As primary antibodies, ZO-1 antibody (Life Technologies) and N-cadherin antibody (BD Biosciences), which are indicators of the barrier function of corneal endothelial cells, and Na^+/K^+-ATPase antibody (MILLIPORE), which is an indicator of pump functions, were added, followed by standing at 4° C. overnight. […] Further, nuclear staining was performed using DAPI (Dojindo). To observe the cell morphology, actin was stained using Phalloidin (Life Technologies). The stained sclerocornea fragments were mounted in slide glasses and observed using a confocal fluorescence microscope (TCS SPE, Leica).
In addition, rabbits were euthanized, and then their eyes were removed. To assess cell death, the sclerocornea fragments were stained with Annexin V (Zymed Laboratories) and PI (Zymed Laboratories), fixed with 0.5% paraformaldehyde, and nuclear stained with DAPI (Dojindo). The stained sclerocornea fragments were mounted in slide glass and observed using a confocal fluorescence microscope (TCS SPE, Leica). Staurosporine (10 μM, Merck Millipore) was administered into the anterior chamber of a rabbit eyeball, and after 24 hours, it was used as a positive control.

[1] = tested on: Fuchs' endothelial corneal dystrophy patient-derived immortalized corneal endothelial cells; experiment: Cell damage inhibitory effect on iFECD stimulated with TGF-β2 (phase contrast microscope); assay type: cell-based, human; conditions: for disorder in the corneal endothelial cells: 1 μM and 3 μM, iFECD, pretreatment, TGF-β2 stimulation; for cell damage inhibitory effect for the corneal endothelial cells: at sub-μM
Protocol: The medium was removed from the culture dish in which Fuchs' endothelial corneal dystrophy patient-derived immortalized corneal endothelial cells (hereinafter, referred to as disease model cells) were being cultured, and the cells were supplemented with 1×PBS (−) that was preheated to 37° C., and were washed. This operation was repeated twice. The cells were supplemented with 1×PBS (−) again and incubated for 5 minutes at 37° C. (5% CO2). After the PBS (−) was removed, the cells were supplemented with 0.05% Trypsin-EDTA (nacalai tesque, 32778-34) and incubated for 5 minutes at 37° C. (5% CO2). The cells were then suspended in a medium, and collected by centrifugation at 1500 rpm for 3 minutes. DMEM (nacalai tesque, 08456-36)+10% FBS (Biowest, S1820-500)+1% P/S (nacalai tesque, 26252-94) was used as the medium. The disease model cells were seeded in a 6-well plate at a rate of 1.5×10^5 cells per well and cultured at 37° C. (5% CO2) for 48 hours. DMEM+10% FBS+1% P/S was used as the medium.
After 48 hours, the medium was removed, and AKP-001, SB203580 (Cayman, 13067), PH-797804 (Selleck Chemicals, S2726) and VX-702 (Selleck Chemicals, 56005) were added to DMEM+2% FBS+1% P/S so that the final concentration was 0.01, 0.03, 0.1, 0.3, 1, 3, 10 and 30 μM, followed by culturing as 24-hour pretreatment. After 24 hours, the medium was removed, and AKP-001, 5B203580 (Cayman, 13067), PH-797804 (Selleck Chemicals, S2726), or VX-702 (Selleck Chemicals, S6005), together with 100 ng/ml Recombinant Human TGF-β2 (R&D systems, RND302-B2-002), were added to DMEM+2% FBS+1% P/S so that the final concentration was 0.01 μM, 0.03 μM, 0.1 μM, 0.3 μM, 1 μM, 3 μM, 10 μM, and 30 μM, followed by culturing for 24 hours. After 24 hours, cell damage was evaluated by observation with a phase contrast microscope. As a control, immortalized corneal endothelial cells that were not stimulated with TGF-β were used.

[2] = tested on: cleaved caspase-3 and PARP; experiment: Western blot of caspase 3 and PARP in iFECD stimulated with TGF-β2; assay type: cell-based, human; conditions: 0.1 μM; for cleaved caspase-3 and PARP expression: 100 ng/ml TGF-β2, 24 hours; for caspase activity: TGF-β2
Protocol: The medium was removed from the culture dish of cultured disease model cells, and the disease model cells were supplemented with 1×PBS (−) that was preheated to 37° C., followed by washing. This operation was repeated twice. The cells were supplemented with 1×PBS (−) again and incubated for 5 minutes at 37° C. (5% CO2). After the PBS (−) was removed, the cells were supplemented with 0.05% Trypsin-EDTA (nacalai tesque, 32778-34) and incubated for 5 minutes at 37° C. (5% CO2). The cells were then suspended in a medium, and collected by centrifugation at 1500 rpm for 3 minutes. Medium: DMEM (nacalai tesque, 08456-36)+10% FBS (Biowest, S1820-500)+1% P/S (nacalai tesque, 26252-94).
The Fuchs' endothelial corneal dystrophy patient-derived immortalized corneal endothelial cells were seeded in a 6-well plate at a rate of 1.5×10^5 cells per well and cultured at 37° C. (5% CO2) for 48 hours. DMEM+10% FBS+1% P/S was used as the medium. After 48 hours, the medium was removed, and SB203580 (Cayman, 13067), PH-797804 (Selleck Chemicals, S2726), VX-702 (Selleck Chemicals, 56005) and AKP-001 were added to DMEM+2% FBS+1% P/S so that all the final concentration was 0.1 μM, followed by culturing as 24-hour pretreatment.
After 24 hours, the medium was removed, and SB203580 (Cayman, 13067), PH-797804 (Selleck Chemicals, S2726), VX-702 (Selleck Chemicals, 56005) and AKP-001, together with 100 ng/ml recombinant human TGF-β2 (R & D systems, RND302-B2-002), were added to DMEM+2% FBS+1% P/S so that all the final concentration was 0.1 μM, followed by culturing for 24 hours. After 24 hours, the protein was subjected to Western blotting according to the following procedure to evaluate the effect on apoptosis.
The medium was collected on ice to collect free and dead cells as well. The solution obtained from washing the cells twice with 1×PBS (−) was also collected, followed by centrifugation of 800 g at 4° C. for 5 minutes. The supernatant was discarded to obtain precipitates. The washed cells were supplemented with a protein extraction buffer (RIPA; 50 mM Tris-HCl (pH 7.4), 150 mM NaCl, 1 mM EDTA, 0.1% SDS, 0.5% DOC, 1% NP-40) on ice to extract proteins. The precipitates from centrifuging the free and dead cells were also subsequently suspended together for extraction. The collected solution was pulverized three times for 30 seconds in cold water with a sonication device (BIORUPTOR, TOSHO DENKI) and centrifuged for 10 min at 4° C. at 15000 rpm to collect the supernatant of proteins.
Eight μg of the extracted protein was separated by SDS-PAGE and transferred onto a nitrocellulose membrane. A rabbit anti-Caspase 3 antibody (Cell Signaling, 9662), rabbit anti-PARP antibody (Cell Signaling, 9542), and mouse anti-GAPDH antibody (MBL, M171-3) were used as the primary antibodies. A peroxidase-labeled anti-rabbit antibody and anti-mouse antibody (GE Healthcare Biosciences, NA931V, NA934V) were used as the secondary antibodies. For the primary antibodies, the rabbit anti-PARP antibody was diluted 1000-fold, the rabbit anti-Caspase 3 antibody was diluted 1000-fold, and the mouse anti-GAPDH antibody was diluted 3000-fold. Further, the secondary antibody was diluted 5000-fold. Chemi Lumi ONE Ultra (Nacalai Tesque, 11644-40) was used for detection. The detected band strength was analyzed with a lumino image analyzer LAS-4000 mini (Fuji Film) and ImageQuant™ software (GE Healthcare).

Row | SMILES | Annexin V and PI staining (cell death) (corneal endothelium) | disorder in the corneal endothelial cells [1] | cell damage inhibitory effect for the corneal endothelial cells [1] | cleaved caspase-3 and PARP expression [2] | caspase activity [2]
1 | CN[C@@H]1C[C@H]2O[C@@](C)([C@@H]1OC)n1c3ccccc3c3c4c(c5c6ccccc6n2c5c31)C(=O)NC4 [staurosporine, reference compound] | Staining with Annexin V or PI was observed | – | – | – | –
2 | NC(=O)c1ccc(N(C(N)=O)c2c(F)cccc2F)nc1-c1ccc(F)cc1F [VX-702] | – | effectively suppressed | not observed; also recorded: No inhibitory effects | confirmed similarly | not inhibited
3 | CNC(=O)c1ccc(C)c(-n2c(C)cc(OCc3ccc(F)cc3F)c(Br)c2=O)c1 [PH-797804] | – | effectively suppressed | not observed; also recorded: No inhibitory effects | confirmed similarly | not inhibited
